{"source": "patent US20260151398A1", "about": "“COMPOUNDS FOR REDUCING CHOLESTEROL AND TREATING LIVER AND KIDNEY DISEASE” (McMaster University, priority 2021, published 2026)", "key": {"PCSK9 [1]": {"tested_on": "PCSK9", "assay": "PCSK9 expression in hepatocytes (immunoblot, real-time PCR)", "type": "cell-based, human, mouse", "conditions": "HuH7; ryanodine 10 μM, CDN 100 μM, 2 APB 50 μM; presence or absence of TG; 24 h", "experimental": "(§1) HuH7 and HepG2 cells were routinely grown in complete Dulbecco's Modified Eagle's Medium (Gibco, Thermofisher Scientific) supplemented with 10% fetal bovine serum (Sigma-Aldrich) and 100 U/ml of penicillin and streptomycin (Sigma-Aldrich). […] All cell treatments were carried out for 24 h unless otherwise stated. Cells were transfected with a cocktail consisting of plasmid DNA (1 μg), X-tremeGENE HP (3 μl; Thermofisher Scientific) and opti-MEM (100 μl; Thermofischer Scientific) per 1 ml complete medium containing plated cells. Human PCSK9 was overexpressed using the bicistronic pIRES-EGFP plasmid; calnexin using the mPA-GFP-N1 plasmid. To block the expression of GRP78 and CD36, siGENOME smartpool siRNA was purchased from GE Dharmacon (M-008198-02 and L-010206-00-0005 respectively) and transfected using lipofectamine RNAiMAX as per manufacturer's protocol.\n(§2) Cells were washed in phosphate-buffered saline (PBS), lysed in 4× SDS-PAGE lysis buffer and separated on 7-10% polyacrylamide gels in denaturing conditions. Gels were transferred to nitrocellulose membranes using the BioRad mini trans-blot system, blocked in 5% skim milk in tris-buffered saline (TBS) for 1 h and incubated in primary antibody overnight for 16 h at 4° C. Membranes were then exposed to horse radish peroxidase conjugated secondary antibodies and visualized using EZ-ECL chemiluminescent reagent (Froggabio). Band intensities were quantified using ImageJ software ([…]) against membranes reprobed for housekeeping proteins.\n(§3) RNA purification/isolation was performed using RNeasy mini kits (Qiagen) and normalized to 2 μg RNA using a NanoDrop® spectrophotometer. Samples were then reverse transcribed into cDNA using Superscript Vilo cDNA Synthesis kit (Thermofisher Scientific). Real-time PCR was executed with Fast SYBR Green (Thermo Fisher Scientific) using the ΔΔct method on the ViiA7 real-time PCR platform (Thermofisher Scientific).\nCultured immortalized hepatocytes known to express and secrete PCSK9 (Lebeau, P., et al., 2017), including HuH7 and HepG2 cells, as well as primary mouse- and human-hepatocytes (PMH and PHH, respectively), were treated with CF for 24 h and assessed for PCSK9 expression via immunoblots and real-time PCR (FIG. 1 A to D). […] Given that sterol deprivation represents another well-established promoter of SREBP2 activation (Lebeau, P., et al., 2017), cells were also treated with CF in the presence and absence of U18666A (U18) that depletes intracellular sterols. […] Next, HepG2 cells were treated with an increasing dose of CF."}, "PCSK9 [2]": {"tested_on": "PCSK9", "assay": "PCSK9 secretion from cultured and primary hepatocytes (ELISA of medium)", "type": "cell-based, human, mouse", "conditions": "ELISA of medium", "experimental": "as §1\n(§4) Secreted PCSK9 levels were assessed directly in cell culture medium of cells grown in FBS-free medium for 24 h or in the serum isolated from either mice or human subjects. Mouse PCSK9 was measured using the Quantikinine® ELISA kit (#MCP900, R&D Systems) and human PCSK9 using the PCSK9 Quantikinine® ELISA kit (#DCP900, R&D Systems). Serum ApoB levels were also quantified using ELISAs (#DAPB00, R&D Systems). Serum samples were diluted as per manufacturer's instructions.\nAll animal studies were carried out in 8 h-fasted male wild-type, Pcsk9^−/− or Ampkβ1^−/− mice on the C57BL/6J background. CF (25-100 mg/kg-8 h) and CDN (50 mg/kg) treatments were administered via intraperitoneal injection unless specified otherwise. Primary mouse hepatocytes were isolated using a two-step process with EGTA ([…] in HEPES buffer, Sigma Aldrich) and collagenase (0.05% in HEPES buffer, Sigma Aldrich) in 12-week-old male mice on the C57BL/6J background. Cells were then washed, centrifuged, and plated following isolation in cell strainers. Hepatosure® 100-donor pooled primary human hepatocytes were purchased from Xenotech. Primary hepatocytes were regularly grown in William's E medium (Gibco, Thermo Fisher Scientific) containing 10% fetal bovine serum, 100 IU/ml penicillin, and 100 µg/ml streptomycin."}, "[3]": {"tested_on": "ER stress markers (GRP78, ATF4, pPERK, IRE1α, sXBP1, ATF6)", "assay": "ER stress / UPR readouts in hepatocytes", "type": "cell-based, human", "conditions": "HuH7; with TG 100 nM", "experimental": "as §2\nFollowing treatment, live cells were incubated in complete DMEM containing 5 μM Thioflavin-T (ThT; Thermofisher Scientific) for 15 minutes. Cells were then fixed in 4% paraformaldehyde and mounted with permafluor. Fluorescent staining was visualized using the EVOS FL colour system at either 20 or 40× magnification.\nas §3\nBecause ER Ca^2+ depletion induces a compensatory unfolded protein response (UPR), it was also postulated that CF may attenuate UPR marker expression by increasing ER Ca^2+ levels. […] Reactive oxygen species production, a process known to occur during conditions of ER stress, was also attenuated by CF (FIG. 9 H). […] While increasing the protein binding ability of chaperones, such as GRP78, CF also attenuates SREBP2-driven gene expression (FIG. 7 L)."}, "PCSK9 [4]": {"tested_on": "PCSK9", "assay": "Secreted PCSK9 levels in HepG2 cells (ELISA)", "type": "cell-based, human", "conditions": "for PCSK9 mRNA expression and secreted levels with increasing doses / reduction of secreted PCSK9 levels compared to CF at the same dose: HepG2; for PCSK9 reduction (100 nM): Table 6, HepG2 cells, 24 h, 100 nM as printed in the cell; for efficacy for PCSK9 inhibition compared with caffeine: initial screening", "experimental": "as §1, §4\nCF, however, is a well-characterized compound having several health benefits with few known adverse effects. Achieving an optimal level of PCSK9 inhibition absent of the neuro-excitatory effect of CF, however, may be a challenge for the long-term clinical application of these findings. […] See Table 6 for the structure activity relationships of several other known xanthine-based compounds explored at varying doses in HepG2 cells for 24 h."}, "SREBP2": {"tested_on": "SREBP2", "assay": "SREBP2 expression and activation in hepatocytes (real-time PCR, SRE-GFP reporter, immunoblot, immunofluorescence)", "type": "cell-based, human, mouse", "conditions": "HepG2, real-time PCR", "experimental": "as §2\nCells were plated in 4-well chamber slides and incubated in complete DMEM for 24 h and exposed to treatments 24 h later for an additional 24 h. Cells were fixed with 4% paraformaldehyde for 30 minutes and washed with either non-permeabilizing, or permeabilizing PBS containing 0.025% Triton-X. Cells were then blocked with 1% bovine serum albumin (BSA) for 30 minutes and stained with anti-GFP antibody for 1 h in PBS containing 1% BSA. Afterwards, cells were washed and incubated with Alexa 488 fluorescently-labelled secondary antibodies (Thermofisher Scientific), as well as the DAPI nuclear stain. Slides were then mounted with permafluor and visualized using the EVOS FL colour imaging system at either 20 or 40× magnification.\nas §3\nTherefore, the effect of CF on TG-; induced SREBP2 activation was examined. […] SREBP2 activity was then examined at the protein level in HuH7 cells transfected with a plasmid encoding GFP driven by the sterol regulatory element (SRE-GFP; FIG. 2E to G). […] GFP expression was also visualized via immunofluorescent staining and quantified using ImageJ Software."}, "HepG2 cells": {"tested_on": "HepG2 cells", "assay": "DiI-LDL uptake assay in HepG2 cells", "type": "cell-based, human", "conditions": "for DiI-LDL cholesterol uptake: HepG2, 10 μM", "experimental": "During the last 5 h of treatment (h 19 to 24) cells were exposed to DiI-LDL (10 μg/ml) and then washed with two changes of pre-warmed (37° C.) HBSS containing 20 mM HEPES prior to analysis.\n(§5) The uptake and accumulation of DiI-LDL was then quantified using a fluorescent spectrophotometer (Molecular Devices). […] Live-cell staining of the LDLR was also performed in HepG2 cells exposed to DiI-LDL (FIG. 11 D)."}, "LDLR": {"tested_on": "LDLR", "assay": "LDLR / CD36 expression in cultured hepatocytes", "type": "cell-based, human", "conditions": "HepG2, 10 μM, immunofluorescent staining", "source_text": "Cells were washed in phosphate-buffered saline (PBS), lysed in 4× SDS-PAGE lysis buffer and separated on 7-10% polyacrylamide gels in denaturing conditions. […] Membranes were then exposed to horse radish peroxidase conjugated secondary antibodies and visualized using EZ-ECL chemiluminescent reagent (Froggabio). Band intensities were quantified using ImageJ software ([…]) against membranes reprobed for housekeeping proteins.\nSlides were then mounted with permafluor and visualized using the EVOS FL colour imaging system at either 20 or 40× magnification.\nas §3, §5"}, "HepG2 hepatocytes": {"tested_on": "HepG2 hepatocytes", "assay": "LDH cytotoxicity assay in HepG2 hepatocytes", "type": "cell-based, human", "conditions": "cultured HepG2 hepatocytes", "experimental": "Secreted PCSK9 levels were assessed using ELISAs and mRNA transcript via real-time PCR. […] Secreted PCSK9, as well as PCSK9 mRNA and SREBP2 mRNA were assessed in these cells. (E) The cytotoxicity of these agents was examined using an LDH assay. […] (G) The uptake of DiI-LDL was also quantified in these cells using a spectrophotometer. Values are presented as the mean and error bars as SD. *, p<0.05 vs. vehicle; NS, non-significant."}}, "data": [{"smiles": "NCCOB(c1ccccc1)c1ccccc1", "note": "[2 APB, 2-APB]", "values": [{"measurement": "SREBP2 and PCSK9 mRNA transcript level", "setting": "PCSK9 [1]", "result": "blocked SREBP2 and PCSK9 at the mRNA transcript level"}, {"measurement": "PCSK9 secretion with Ca2+-modulating agents", "setting": "PCSK9 [2]", "result": "blocked PCSK9 secretion"}, {"measurement": "TG-induced GRP78 expression", "setting": "[3]", "result": "blocked TG-induced expression"}]}, {"smiles": "Cn1c(=O)c2c(nc(/C=C/c3cccc(Cl)c3)n2C)n(C)c1=O", "note": "[8CC, 8-(3-Chlorostyryl) CF]", "values": [{"measurement": "PCSK9 mRNA expression and secreted levels with increasing doses", "setting": "PCSK9 [4]", "result": "dose-dependent reduction"}]}, {"smiles": "Cn1c(=O)c2[nH]c(C3CCCC3)nc2n(C)c1=O", "note": "[8CD, 8-cyclopentyl-1,3-dimethylxanthine]", "values": [{"measurement": "PCSK9 mRNA expression and secreted levels with increasing doses", "setting": "PCSK9 [4]", "result": "dose-dependent reduction"}]}, {"smiles": "Cn1c(=O)c2[nH]c(-c3ccncc3)nc2n(C)c1=O", "note": "[I-9]", "values": [{"measurement": "PCSK9 reduction (100 nM)", "setting": "PCSK9 [4]", "result": "0.86 (100 nM)"}]}, {"smiles": "Cn1c(=O)c2[nH]c(-c3ccc([N+](=O)[O-])cc3)nc2n(C)c1=O", "note": "[I-10]", "values": [{"measurement": "PCSK9 reduction (100 nM)", "setting": "PCSK9 [4]", "result": "0.93 (100 nM)"}]}, {"smiles": "Cn1c(=O)c2[nH]c(-c3cc(F)c(F)cc3F)nc2n(C)c1=O", "note": "[Ia-1]", "values": [{"measurement": "reduction of secreted PCSK9 levels compared to CF at the same dose", "setting": "PCSK9 [4]", "result": 2, "unit": "fold"}, {"measurement": "efficacy for PCSK9 inhibition compared with caffeine", "setting": "PCSK9 [4]", "result": "significantly greater efficacy for PCSK9 inhibition than caffeine"}, {"measurement": "PCSK9 and SREBP2 mRNA", "setting": "SREBP2", "result": "antagonism of SREBP2 reduced de novo synthesis of PCSK9"}, {"measurement": "DiI-LDL cholesterol uptake", "setting": "HepG2 cells", "result": "significant increase"}, {"measurement": "cell-surface LDLR expression", "setting": "LDLR", "result": "significant increase in LDLR expression"}, {"measurement": "cytotoxicity (LDH assay)", "setting": "HepG2 hepatocytes", "result": "did not exhibit cytotoxic properties"}]}, {"smiles": "Cn1c(=O)c2[nH]c(-c3ccc([N+](=O)[O-])o3)nc2n(C)c1=O", "note": "[Ia-7]", "values": [{"measurement": "reduction of secreted PCSK9 levels compared to CF at the same dose", "setting": "PCSK9 [4]", "result": 2, "unit": "fold"}, {"measurement": "efficacy for PCSK9 inhibition compared with caffeine", "setting": "PCSK9 [4]", "result": "significantly greater efficacy for PCSK9 inhibition than caffeine"}, {"measurement": "PCSK9 and SREBP2 mRNA", "setting": "SREBP2", "result": "antagonism of SREBP2 reduced de novo synthesis of PCSK9"}, {"measurement": "DiI-LDL cholesterol uptake", "setting": "HepG2 cells", "result": "significant increase"}, {"measurement": "cell-surface LDLR expression", "setting": "LDLR", "result": "significant increase in LDLR expression"}, {"measurement": "cytotoxicity (LDH assay)", "setting": "HepG2 hepatocytes", "result": "did not exhibit cytotoxic properties"}]}, {"smiles": "CCCn1c(=O)[nH]c2nc(-c3ccc(S(=O)(=O)N4CCN(c5ccc(Cl)cc5)CC4)cc3)[nH]c2c1=O", "note": "[PSB603]", "values": [{"measurement": "PCSK9 mRNA expression and secreted levels with increasing doses", "setting": "PCSK9 [4]", "result": "dose-dependent reduction"}]}, {"smiles": "CCN(CC)CCO[C@H]1CC[C@@]2(C)C(=CC[C@@H]3[C@@H]2CC[C@]2(C)C(=O)CC[C@@H]32)C1", "note": "[U18, U18666A]", "values": [{"measurement": "PCSK9 secretion with Ca2+-modulating agents", "setting": "PCSK9 [2]", "result": "increased PCSK9 secretion"}, {"measurement": "LDLc (DiI-LDL) uptake", "setting": "HepG2 cells; HepG2, 24 h treatment, DiI-LDL 5 h", "result": "reduced LDLc uptake"}]}, {"smiles": "Cn1c(=O)[nH]c2ncn(C)c2c1=O", "note": "[paraxanthine]", "values": [{"measurement": "PCSK9 mRNA expression and secreted levels with increasing doses", "setting": "PCSK9 [4]", "result": "dose-dependent reduction"}]}, {"smiles": "CCCCCCCC/C=C\\CCCCCCCC(=O)ON1C(=O)CC(S(=O)(=O)O)C1=O", "note": "(stereo not shown) [sulfosuccinimidyl oleate]", "values": [{"measurement": "effect of CD36 inhibition on CF-mediated DiI-LDL uptake", "setting": "HepG2 cells; HepG2", "result": "failed to affect CF-mediated DiI-LDL uptake"}]}, {"smiles": "Cn1cnc2c1c(=O)[nH]c(=O)n2C", "note": "[theobromine]", "values": [{"measurement": "PCSK9 mRNA expression and secreted levels with increasing doses", "setting": "PCSK9 [4]", "result": "dose-dependent reduction"}]}]}
